# Laboratory results published in article PMC12362796, “Bilirubin Targeting WNK1 to Alleviate NLRP3‐Mediated Neuroinflammation” (Advanced Science, 2025).
# What was measured:
# [1] = test system: LPS-induced NLRP3 inflammasome activation in hippocampus; experiment: LPS-induced inflammation model in mice, hippocampal NLRP3 inflammasome activation; format: in vivo, mouse
# Description: Furthermore, a murine model of infection‐induced inflammation was established in neonatal wild‐type, Blvra^−/− , and Ugt1a1^+/− mice by intraperitoneal administration of lipopolysaccharide (LPS) (Figure 5A).^[ [41], [42] ^] We assessed the expression levels of NLRP3 in the hippocampal region and the aggregation of the adaptor protein ASC in hippocampal neurons to indicate the level of inflammasome activation.^[ [43], [44] ^] We observed elevated NLRP3 expression (Figure 5B) and increased ASC aggregation in low‐bilirubin Blvra^−/− mice compared to wild‐type controls, whereas these parameters were reversed in high‐bilirubin Ugt1a1^+/− mice (Figure 5C,D). Additionally, Caspase‐1 enzyme activity decreased in high‐bilirubin mice (Figure 5E), supporting the inhibitory role of bilirubin in NLRP3 activation.
# Figure 5 Bilirubin‐WNK1 suppresses LPS‐induced NLRP3 activation in the mouse hippocampus. A) Diagram of the experimental design. LPS (0.6 µg g^−1) or normal saline (NS) was injected intraperitoneally (i.p.) for 5 consecutive days starting on day 7. Hippocampal tissues were harvested 6 h after last injection. B) Western blotting analysis of NLRP3 in hippocampal tissues from WT, Blvra^−/− , or Ugt1a1^+/− mice after LPS/saline treatment. C) Immunofluorescence staining of ASC speck formation in hippocampal tissues from WT, Blvra^−/− , or Ugt1a1^+/− mice after LPS/saline treatment. β3‐Tubulin was used to label neurons and DAPI to stain cell nuclei. Main image scale bars = 50 µm, inset scale bars = 5 µm. D) Summary data showing the percentage of cells containing ASC specks as shown in C) (n = 6). (E) Relative activity of caspase‐1 in hippocampal tissues from WT, Blvra^−/− , or Ugt1a1^+/− mice after LPS/saline treatment (n = 3). F) Experimental design diagram. LPS (0.6 µg g^−1), LPS combined with bilirubin (5 µg g^−1), or normal saline (NS) was injected intraperitoneally for 5 consecutive days starting on day 7. G) Western blotting analysis of NLRP3 in hippocampal tissues from Wnk1^fl/fl,Thy1‐Cre mice after treatment. H) Immunofluorescence staining of ASC speck formation in hippocampal tissues from vehicle‐treated and Wnk1^fl/fl,Thy1‐Cre mice after treatment. β3‐Tubulin was used to label neurons and DAPI to stain cell nuclei. Main image scale bars = 50 µm, inset scale bars = 5 µm. Corresponding images are also provided in Figure S21 (Supporting Information). I) Relative activity of caspase‐1 in hippocampal tissues from Wnk1^fl/fl and Wnk1^fl/fl,Thy1‐Cre mice after treatment (n = 3). Error bars indicate mean ± SD. *p < 0.05, **p < 0.01, ***p < 0.001, and ****p < 0.0001.
# To investigate the role of WNK1 in mediating the inhibitory effect of bilirubin on NLRP3 activation, we used Wnk1^fl/fl,Thy1‐Cre mice which is the hippocampal neuron‐specific Wnk1 knockout mice. Mice were then administered intraperitoneal injections of saline, LPS, or a combination of LPS and bilirubin (Figure 5F). After five days of LPS treatment, we observed increased staining areas for GFAP (an astrocyte marker) and IBA1 (a microglia marker). Furthermore, a portion of the adaptor protein ASC (encoded by PYCARD) co‐localized with IBA1 and GFAP.
# Caspase‐1 activity was measured using a Caspase‐1 Activity Assay Kit (Beyotime Biotechnology, Haimen, China). Briefly, 50 µg of protein from the mouse hippocampal tissue was added to a reaction buffer containing Ac‐YVAD‐ρNA. The absorbance was read at 405 nm using a microplate reader, and caspase‐1 activity was normalized to that of the control.
# WNK1 (191–491) = biological target: T1, WNK1 (191–491) (Homo sapiens, UniProt Q9H4A3); experiment: MST, EGFP-tagged WNK1 truncation 191–491; format: binding; conditions: WNK1 191–491, 15 min, HEK293T lysates
# T1 construct: different lengths of WNK1 truncations (1–491, 1–190, 191–491, 491–2382); expressed in transfected cells; host or cells: HEK293T
# T1 sequence (Q9H4A3 191-491): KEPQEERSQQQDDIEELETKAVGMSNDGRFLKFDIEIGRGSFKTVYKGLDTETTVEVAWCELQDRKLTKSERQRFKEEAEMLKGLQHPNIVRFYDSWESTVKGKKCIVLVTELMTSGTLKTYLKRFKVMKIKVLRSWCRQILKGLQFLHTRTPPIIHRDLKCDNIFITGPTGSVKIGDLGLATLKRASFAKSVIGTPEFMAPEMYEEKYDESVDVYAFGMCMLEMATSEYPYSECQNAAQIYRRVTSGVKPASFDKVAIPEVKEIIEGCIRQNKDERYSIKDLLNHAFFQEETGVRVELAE
# Description: To further validate these findings, we constructed GFP‐tagged fusion proteins with different lengths of WNK1 truncations (1–491, 1–190, 191–491, 491–2382) based on the WNK1 domains (Figure 3E) and analyzed their binding capacity with bilirubin using MST analysis.^[ [29] ^]
# All WNK1 clones were derived from the original untagged hWNK1 cDNA (NM_018979), which was modified and subcloned into the pcDNA3.1, referred to as “full‐length WNK1” throughout this study. Truncated constructs, including 1–190aa, 191–491aa, 1–491aa, and 491–2382aa fragments, were generated by PCR using the full‐length template and subsequently ligated into linearized pcDNA3.1 vectors. WNK2 was obtained from Addgene Plasmid #24569, and WNK3 was obtained from Addgene Plasmid #81723. Both were subjected to base modifications and cloned into pcDNA3.1. The WNK4 clone was derived from hWNK4 cDNA (NM_032387.5), modified, and subcloned into the pCMV3‐C‐GFPSpark vector.
# In HEK293T cells, proteins tagged with green fluorescent protein (GFP) were expressed. The cells were lysed using the M‐PER Mammalian Protein Extraction Reagent (cat. no. 78505, Thermo Scientific) supplemented with protease inhibitors. Lysates were centrifuged at 12000 × g for 15 min at 4 °C, and the supernatant containing proteins was diluted 10‐fold with 1x PBST. […]
# [2] = LPS 0.6 µg g−1 with bilirubin 5 µg g−1 i.p., 5 consecutive days, hippocampus
compound,measurement,setting,value
"C=CC1=C(C)/C(=C/c2[nH]c(Cc3[nH]c(/C=C4\NC(=O)C(C)=C4C=C)c(C)c3CCC(=O)O)c(CCC(=O)O)c2C)NC1=O [bilirubin, Bilirubin]",ASC speck formation,"[1]; LPS 0.6 µg g−1 with bilirubin 5 µg g−1 i.p., 5 consecutive days, hippocampal neurons",reduces
same,Caspase-1 activation,[1]; [2],reduces
same,IL-1β cleavage,[1]; [2],reduces
same,ASC aggregation in microglia or astrocytes,"[1]; LPS with bilirubin i.p., 5 days, IBA1 and GFAP co-localization",does not affect
same,"inhibitory effect on NLRP3 inflammasome assembly, Caspase-1 enzyme activity and IL-1β maturation after deletion of Wnk1","[1]; Wnk1fl/fl,Thy1-Cre mice, LPS stimulation",abolished
same,phosphorylation-mediated activation of the NF-κB p65 subunit,"[1]; upon LPS stimulation, hippocampus",neither bilirubin nor Wnk1 deficiency had a significant effect
same,Kd,WNK1 (191–491),28 nM
